Assay results as given in patent US5545637A, “Process for preparing pharmaceutical compositions containing crystalline anhydrous mycophenolate mofetil salts” (Syntex (U.S.A.) Inc., priority 1995, dated 1996).
Where a name gives a salt, the structure may show the parent alone. Blank lines part the entries; values can stand above or below the molecule they belong to.

Assays:
Format in all cases: physicochemical
[1] = Solubility in typical intravenous formulation solutions; details: viewed over 3 days, typical intravenous formulation solutions (e.g., 5% dextrose solution or water suitable for injection), 4320 min
[2] = Comparative stability of MM salt forms; details: comparison of salt forms, in words
[3] = Comparative solubility of MM salt forms

solubility characteristics ([3]; amorphous vs monohydrate salt form, in words): better solubility characteristics
SMILES: COc1c(C)c2c(c(O)c1C/C=C(\C)CCC(=O)OCCN1CCOCC1)C(=O)OC2 [amorphous salt form]

solubility [1]: approximately 40 mg/ml
SMILES: COc1c(C)c2c(c(O)c1C/C=C(\C)CCC(=O)OCCN1CCOCC1)C(=O)OC2 [crystalline monohydrate form]

Second part, the molecule before the results:

SMILES: COc1c(C)c2c(c(O)c1C/C=C(\C)CCC(=O)OCCN1CCOCC1)C(=O)OC2 [2-(4-morpholino)ethyl-(E)-6-(1,3-dihydro-4-hydroxy-6-methoxy-7-methyl-3-oxo-5-isobenzofuranyl)-4-methyl-4-hexenoate hydrochloride]
solubility ([1]; hydrochloride): approximately 84 mg/ml

SMILES: COc1c(C)c2c(c(O)c1C/C=C(\C)CCC(=O)OCCN1CCOCC1)C(=O)OC2 [MM in its monohydrate salt form]
stability [2]: more stable than MM in its amorphous salt form

SMILES: COc1c(C)c2c(c(O)c1C/C=C(\C)CCC(=O)OCCN1CCOCC1)C(=O)OC2 [crystalline anhydrous salt form of MM]
stability [2]: the same stability characteristics of the monohydrate salt form | increase in solubility over the monohydrate salt form ([3]; anhydrous vs monohydrate salt form): about a two-fold increase in solubility over the monohydrate salt form
